From patent US20070146686A1, “Non-invasive method to monitor microcirculation” (priority 2004, published 2007) come the findings set out here.

In this test the test system is skin. The note with it: topical application on the skin; images at 0.5, 2, 5, 10 minutes following application; listed as methyl nicotineate amide.

Description: Another way of administering the agent is by topical application on the skin. […] This agent is frequently used in skin testing for assessing the sensitivity of the skin.
In this example a modern digital camera technology is utilized, exemplified by Canon IXUS V3, Canon Svenska AB, Solna, Sweden. […] In this approach a flash of white light—or alternatively continuous light—(A, FIG. 4) illuminates the skin (B, FIG. 4) under study after having been linearly polarized by a polarizer (C, FIG. 4) positioned in front of the flash lamp—or a lamp delivering continuous light—(D, FIG. 4). In the skin surface (E, FIG. 4), a fraction of the polarized light is directly reflected towards the camera aperture with essentially no change in polarization. […]
At least two of the normalized data matrixes representing the different colors are then further processed to form an output data matrix (L, FIG. 4), where each value corresponds to the amount of vasodilatation in the actual source point in tissue. In this example, the algorithm generates an output data matrix of which each element is calculated by subtracting the green value from the red value and divides the difference by the sum of the red and the green value of each element of the normalized original data matrixes.

On to methyl nicotinate amide, for which the “local vasodilatation in skin” value is given as “Vasodilatation”.
